# Measurements as given in publication PMC11697714, “Strigolactones initiate the formation of haustorium-like structures in Castilleja” (iScience, 2024).
# Read-outs that look alike come from different tables or passages of the source.
# T1: KAI2d8 (Castilleja foliolosa, UniProt A0ABD3DF32)
# T1 construct: GST fusion (pGEX-4T-1) in E. coli BL21, GST cut with HRV 3C leaving N-terminal Gly-Pro; synthetic codon-optimised gene; genome GenBank JAVIJP000000000
# T1 sequence (A0ABD3DF32 1-275): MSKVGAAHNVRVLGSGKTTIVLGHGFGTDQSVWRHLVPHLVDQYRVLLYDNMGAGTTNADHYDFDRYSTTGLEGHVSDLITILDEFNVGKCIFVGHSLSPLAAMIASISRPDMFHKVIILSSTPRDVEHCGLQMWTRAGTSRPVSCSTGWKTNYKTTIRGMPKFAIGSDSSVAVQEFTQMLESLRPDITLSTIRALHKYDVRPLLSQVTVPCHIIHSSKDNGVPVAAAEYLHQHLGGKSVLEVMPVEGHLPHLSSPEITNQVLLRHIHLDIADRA
# B1: KAI2d9 (Castilleja foliolosa) (protein)
# chain: MSTVGSAHNVQVIGSGETTVVLGHGYGTDQSVWKNLVPHLVDQYKVLLFDNMGAGTTNPDYFDFERYSTLEGYAYDLIAILEEFNVHKCIYVGHSMSAIAGAIASIFRPDLFHKLIMICASPRLTNTGDYYGGFKQEELEQLSGAMESNFQSMAMGRAPLVIGSDLESEAVQEYCRTLFNMRPDISFSVVRTIFALDMRPFLPQVTVPCHIIQSSKDIYVPLSVGEYLHQNLGGKSIVEVMPTQGHLPHLSAPEVTNPVLLRHIQQDIADA
# notes: GST fusion (pGEX-4T-1) in E. coli BL21, GST cut with HRV 3C leaving N-terminal Gly-Pro; synthetic codon-optimised gene; genome GenBank JAVIJP000000000
# B2: KAI2d8 (Castilleja foliolosa) (protein)
# chain: T1 sequence (A0ABD3DF32 1-275)
# notes: as for B1
# Experiments:
# KAI2d15 [1] = molecular target: T2, KAI2d15 (Castilleja foliolosa, UniProt A0ABD3DF95, M143V/M154V/M158V, form not given); assay: differential scanning fluorimetry, SYPRO Orange; assay type: binding; details: 20 mM Tris-HCl, 30 mM NaCl, 1 mM TCEP, pH 7.7
# T2 construct: GST fusion (pGEX-4T-1) in E. coli BL21, GST cut with HRV 3C leaving N-terminal Gly-Pro; synthetic codon-optimised gene; catalytic triad S95, D217, H246; entrance M142, M153, M157; genome GenBank JAVIJP000000000
# KAI2d15 [2] = molecular target: T3, KAI2d15 (Castilleja foliolosa, UniProt A0ABD3DF95); assay: differential scanning fluorimetry, SYPRO Orange; assay type: binding; details: 20 mM Tris-HCl, 30 mM NaCl, 1 mM TCEP, pH 7.7
# T3 construct: GST fusion (pGEX-4T-1) in E. coli BL21, GST cut with HRV 3C leaving N-terminal Gly-Pro; synthetic codon-optimised gene; catalytic triad S95, D217, H246; entrance M142, M153, M157; genome GenBank JAVIJP000000000
# KAI2d8 = molecular target: T1, KAI2d8; assay: differential scanning fluorimetry, SYPRO Orange; assay type: binding; details: 20 mM Tris-HCl, 30 mM NaCl, 1 mM TCEP, pH 7.7
# KAI2d14 = test system: T4, KAI2d14; assay: fluorescent hydrolysis, Michaelis-Menten; assay type: biochemical, Castilleja foliolosa
# T4 construct: GST fusion (pGEX-4T-1) in E. coli BL21, GST cut with HRV 3C leaving N-terminal Gly-Pro; synthetic codon-optimised gene; genome GenBank JAVIJP000000000
# From the text: fluorescent hydrolysis, Michaelis-Menten on KAI2d14 | Michaelis-Menten experiments using the large fluorescent strigolactone analog Yoshimulactone Green (YLG)
# KAI2d15 [3] = molecular target: T3, KAI2d15; assay: fluorescent hydrolysis, Michaelis-Menten; assay type: biochemical
# KAI2d15 [4] = molecular target: T2, KAI2d15; assay: fluorescent hydrolysis, Michaelis-Menten; assay type: biochemical
# KAI2i1 = test system: T5, KAI2i1; assay: fluorescent hydrolysis, Michaelis-Menten; assay type: biochemical, Castilleja foliolosa
# T5 construct: GST fusion (pGEX-4T-1) in E. coli BL21, GST cut with HRV 3C leaving N-terminal Gly-Pro; synthetic codon-optimised gene; genome GenBank JAVIJP000000000
# From the text: fluorescent hydrolysis, Michaelis-Menten on KAI2i1 | Michaelis-Menten experiments using the large fluorescent strigolactone analog Yoshimulactone Green (YLG)
# [5] = substrate: CCOC(=O)c1ccccc1-c1c2ccc(=O)cc-2oc2cc(OC3C=C(C)C(=O)O3)ccc12; assay: fluorescent hydrolysis, Michaelis-Menten; assay type: biochemical, Castilleja foliolosa
# From the text: fluorescent hydrolysis, Michaelis-Menten on KAI2d9 | Michaelis-Menten experiments using the large fluorescent strigolactone analog Yoshimulactone Green (YLG)
# [6] = substrate: CCOC(=O)c1ccccc1-c1c2ccc(=O)cc-2oc2cc(OC3C=C(C)C(=O)O3)ccc12; assay: fluorescent hydrolysis, Michaelis-Menten; assay type: biochemical, Castilleja foliolosa; remark: listed apart in the source
# From the text: fluorescent hydrolysis, Michaelis-Menten on KAI2d8 | Michaelis-Menten experiments using the large fluorescent strigolactone analog Yoshimulactone Green (YLG)
# T3 sequence (A0ABD3DF95 entry or part of it): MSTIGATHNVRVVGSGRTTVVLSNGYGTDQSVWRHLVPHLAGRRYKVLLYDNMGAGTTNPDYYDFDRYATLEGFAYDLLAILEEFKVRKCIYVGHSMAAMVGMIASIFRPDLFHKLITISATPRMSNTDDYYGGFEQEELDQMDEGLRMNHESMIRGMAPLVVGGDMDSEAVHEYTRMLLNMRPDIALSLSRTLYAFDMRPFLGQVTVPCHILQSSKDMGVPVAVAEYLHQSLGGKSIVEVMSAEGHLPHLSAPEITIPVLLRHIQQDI
# T2 sequence (A0ABD3DF95 entry or part of it M143V/M154V/M158V, form open): as the sequence (A0ABD3DF95 entry or part of it) above, with M143V, M154V, M158V counted along it
molecule,measurement,setting,value
CC1=C[C@H](O/C=C2/C(=O)O[C@@H]3C4=C(CCCC4(C)C)C[C@H]23)OC1=O [5-deoxystrigol],"differential scanning fluorimetry, SYPRO Orange",KAI2d15 [1],mutant protein showed destabilization at lower ligand concentrations when GR24 or 5-deoxystrigol were present
same,"differential scanning fluorimetry, SYPRO Orange",KAI2d15 [2],"DSF experiments with four different strigolactone molecules, testing both the variant and the wild-type protein"
CC1=C[C@H](O/C=C2/C(=O)O[C@@H]3c4ccccc4C[C@H]23)OC1=O [GR24 5DO],"differential scanning fluorimetry, SYPRO Orange",KAI2d15 [1]; printed only as GR24,mutant protein showed destabilization at lower ligand concentrations when GR24 or 5-deoxystrigol were present
same,"differential scanning fluorimetry, SYPRO Orange",KAI2d8,A weaker but discernible destabilization was noted with KAI2d8
CCOC(=O)c1ccccc1-c1c2ccc(=O)cc-2oc2cc(OC3C=C(C)C(=O)O3)ccc12 (stereo not shown) [Yoshimulactone Green],Km,KAI2d14,1.1 ± 0.3 µM
same,Km,KAI2d15 [3],0.8 µM
same,Km,KAI2d15 [4],2.4 µM
same,Km,KAI2i1,3.1 ± 0.7 µM
CC1=CC(OC=C2C(=O)OC3C4=C(CCCC4(C)C)C(O)C23)OC1=O (stereo not shown) [orobanchol],"differential scanning fluorimetry, SYPRO Orange",KAI2d15 [1],"DSF experiments with four different strigolactone molecules, testing both the variant and the wild-type protein"
same,"differential scanning fluorimetry, SYPRO Orange",KAI2d15 [2],wild-type protein destabilized at lower concentrations of strigol or orobanchol
CC1=C[C@H](O/C=C2/C(=O)O[C@@H]3C4=C(C[C@H]23)[C@@H](O)CCC4(C)C)OC1=O [strigol],"differential scanning fluorimetry, SYPRO Orange",KAI2d15 [1],"DSF experiments with four different strigolactone molecules, testing both the variant and the wild-type protein"
same,"differential scanning fluorimetry, SYPRO Orange",KAI2d15 [2],wild-type protein destabilized at lower concentrations of strigol or orobanchol
B1,Km,[5],0.5 ± 0.1 µM
same,kcat,[5],600 ± 49 s⁻¹
B2,Km,[6],6.6 ± 0.2 µM
same,kcat,[6],2780 ± 193 s⁻¹
